Experimental data from patent US11026945B2, “Protein kinase RNA-like endoplasmic reticulum kinase (PERK) inhibitors for prevention and/or treatment of lung injury and/or inflammation” (THE TRUSTEES OF THE UNIVERSITY OF PENNSYLVANIA, priority 2016, dated 2021).

System: AEC-I monolayers
Experiment: Monolayer permeability, FITC-labeled streptavidin binding to biotin
Type: cell-based, rat
Conditions: stretched monolayers (25%, 6 hrs), 1 μM PI pretreatment 18 hours
Excerpt: To obtain monolayer rat type-II alveolar epithelial cells (AEC-II), cells were isolated from Sprague-Dawley rats (250-300 g, N=30 purchased from Charles River Laboratories, Wilmington, Mass.) described by Tschumperlin D J, Margulies SS. Equibiaxial deformation-induced injury of alveolar epithelial cells in vitro. Am J Physiol. 1998; 275(6 Pt 1):L1173-83. Epub 1998/12/09 (PubMed PMID: 9843855), with modifications. Briefly, animals were killed and the lungs were harvested. The lung tissue was digested with elastase at 37° C. and distal airways were isolated. Following, cells were placed on rat IgG coated containing no serum for 90 minutes to eliminate contaminating leukocytes and parenchymal cells. This isolation method yielded approximately 95% pure alveolar epithelial cell population. 1.3 million cells were plated on 1 cm diameter fibronectin-coated custom made silastic membranes. In permeability studies, biotin were mixed with fibronectin and membranes were pretreated with oxygen plasma coating to ensure homogenous distribution of the fibronectin. Cells were cultured with 10% fetal bovine serum (FBS)-containing Minimal Essential Medium (MEM) containing low dose antibiotics for 3 days. 32 to 40 monolayers were per rat. On the 3rd day, matured monolayers were randomized to be exposed to one of the treatments for 24 hours (N=3 monolayers/treatment): • A. RNAiMax transfection reagent treatment using serum free media (Opti-MEM, Thermo Fisher Scientific, Waltham, Mass.). This is a negative control for siRNA experiments where serum free media is used for improved transfection efficiency; • B. non-targeting siRNA treatment ([…], Dharmacon) serves a negative control for transfection; • C. […]
The dose of siRNA and PI treatment was selected based on dose-response curves above (FIG. 2A-FIG. 2E). […] All membranes were treated with FITC-labeled streptavidin (Thermo Fisher Scientific) at the end of the experiment and light emission was detected at 488 nm with fluorescent microscopy (Nikon TE300, Melville, N.Y.). […]

Cn1cc(-c2ccc3c(c2)CCN3C(=O)Cc2cccc(C(F)(F)F)c2)c2c(N)ncnc21 [PI, 1-[5-(4-Amino-7-methyl-7H-pyrrolo[2,3-d]pyrimidin-5-yl)indolin-1-yl]-2-(3-trifluoromethylphenyl)ethanone]
monolayer permeability: significantly reduced
